# Results as given in US8987212B2, “Oleanoyl peptide composition and method of treating skin aging” (priority 2007, dated 2015).
# Where a SMILES comes first, the peptide text is derived from it. The star is where a group is joined. X1 = CC1(C)CC[C@]2(C(=O)*)CC[C@]3(C)C(=CCC4[C@@]5(C)CC[C@H](O)C(C)(C)C5CC[C@]43C)C2C1
# Assays:
# [1] = test system: B16F1 mouse melanoma cells; experiment: Melanin inhibition in α-MSH induced melanoma cells; assay type: cell-based
# Procedure: B16F1 mouse melanoma cells were seeded in a 6 well microtiter plate at a seeding density of 5000 cells per well in 2 ml DMEM medium per well. After 24 hours of incubation in a CO2 incubator, melanin production is induced by 0.1 nM ∝-MSH by replacing the medium with medium containing ∝-MSH. The cells were then treated with varying concentrations of sample (composition containing oleanoyl peptide and stilbenes/licorice extract/THC) over a period of 9 days with renewal of ∝-MSH containing medium and sample at regular intervals of 3 days. Control wells were maintained without sample treatment and only with the vehicle used for sample preparation. After the incubation period, the medium was removed and the cells were scraped and washed in PBS. Thereafter, melanin was extracted by 1N NaOH in boiling water bath for 5 minutes. The absorbance of the melanin extract was read at 405 nm in a microplate reader. The inhibitory effect of the sample is calculated based on the decrease of melanin formation.
# T=absorbance due to melanin in the presence of inhibitor
# Prostaglandin E2 (PGE2) = experiment: Extracellular PGE2 from LPS-challenged human neutrophils; assay type: cell-based; conditions: for % activity PGE2 expression against LPS control: ↓ = inhibition
# Procedure: (§1) Experimental observations were made in human neutrophil that were challenged with LPS. […] Rolipram at 100 μg/ml dose level was used as a standard drug to observe the authenticity and reproducibility of the experimental design.
# (§2) The Oleanoyl peptide was also screened for NO and PGE2 expression.
# [2] = target: porcine pancreatic elastase (Sus scrofa, UniProt P00772); experiment: EnzChek Elastase Assay, elastase inhibitory potential
# Text: The EnzChek kit contains DQelastin, fluorescein conjugated soluble bovine neck ligament elastin. This substrate is efficiently digested by elastase to yield highly fluorescent peptides. […] Elastase used for the assay is purified from porcine pancreas.
# T=absorbance due to elastase activity in the presence of inhibitor
# LTB4 = LTB4 inhibition (same procedure as TNF α); assay type: cell-based, human; conditions: at 0.625 μg/ml
# Text: The above procedure is also followed for determining LTB4 inhibition by Oleanoyl peptide. From the results tabulated in table 1, it is clear that Oleanoyl peptide is a better TNF α and LTB4 inhibitor.
# [3] = DPPH free radical scavenging assay
# Procedure: The DPPH assay is often used to evaluate the ability of antioxidants to scavenge free radicals which are known to be a major factor in biological damages caused by oxidative stress. This assay is known to give reliable information concerning the antioxidant ability of the tested compounds. The assay is based on the color change of the stable free radical DPPH from purple to yellow as the radical is quenched by the antioxidant.
# The assay mixture tubes containing 1.5 ml of 0.1 mM DPPH methanolic solution and varying concentrations of the sample in a total volume of 3 ml were incubated at 37° C. for 30 minutes in a shaking water bath. The reduction in absorbance which is directly proportional to the radical scavenging is measured spectrophotometrically at 517 nm. […] The percentage of scavenging is calculated as follows, % scavenging=[(C−T)/C]×100 Where C=absorbance in the absence of inhibitor
# T=absorbance in the presence of inhibitor
# [4] = target: Collagenase Type IV from Clostridium histolyticum; conditions: Collagenase Type IV 0.2 U/ml, DQ gelatin, 30 minutes
# Interleukin-6 (IL-6) = experiment: Extracellular IL-6 from LPS-challenged human neutrophils; assay type: cell-based; conditions: for % activity IL-6 expression against LPS control: ↓ = inhibition
# Procedure: as §1
# Nitric Oxide (NO) = experiment: Extracellular nitric oxide from LPS-challenged human neutrophils; assay type: cell-based; conditions: for % activity NO expression against LPS control: ↓ = inhibition
# Procedure: as §1, §2
# [5] = test system: Interleukin-1beta (IL-1β); experiment: Extracellular IL-1β from LPS-challenged human neutrophils; assay type: cell-based; conditions: for % activity IL-1β expression against LPS control: ↓ = inhibition
# Procedure: as §1
# [6] = test sample 2 μg/ml, listed as OP
# Chain of porcine pancreatic elastase (P00772 27-266): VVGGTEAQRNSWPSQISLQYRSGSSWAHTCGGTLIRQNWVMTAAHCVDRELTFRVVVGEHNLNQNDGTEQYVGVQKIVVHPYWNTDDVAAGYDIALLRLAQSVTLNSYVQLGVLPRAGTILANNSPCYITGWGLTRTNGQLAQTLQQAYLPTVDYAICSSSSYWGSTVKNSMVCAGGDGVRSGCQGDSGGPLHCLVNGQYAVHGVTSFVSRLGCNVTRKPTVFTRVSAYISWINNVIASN
smiles,measurement,setting,value
"C[C@@H](O)[C@H](NC(=O)[C@H](CCCCN)NC(=O)[C@]12CCC(C)(C)CC1C1=CCC3[C@@]4(C)CC[C@H](O)C(C)(C)C4CC[C@@]3(C)[C@]1(C)CC2)C(=O)N[C@H](C(=O)N[C@@H](CCCCN)C(=O)N[C@@H](CO)C(=O)O)[C@@H](C)O (stereo partly drawn) [Oleanoyl peptide, Oleanoyl-Lys-Thr-Thr-Lys-Ser-OH] (X1-KTTKS-OH)",reduction in melanin,"[1]; result in words, FIG. 15",no significant reduction in melanin
same,"Melanin inhibition IC50 (μg/ml), Individual active","[1]; α-MSH induced, 9 days",Not significant
same,Concentration of PGE2 produced (pg/ml) Mean ± S.E.,Prostaglandin E2 (PGE2); test sample 0.125 μg/ml,573.82 ± 6.08 pg/mL
same,Concentration of PGE2 produced (pg/ml) Mean ± S.E.,Prostaglandin E2 (PGE2); test sample 0.25 μg/ml,501.64 ± 7.56 pg/mL
same,Concentration of PGE2 produced (pg/ml) Mean ± S.E.,Prostaglandin E2 (PGE2); test sample 0.5 μg/ml,468.31 ± 6.41 pg/mL
same,Concentration of PGE2 produced (pg/ml) Mean ± S.E.,Prostaglandin E2 (PGE2); test sample 1 μg/ml,419.53 ± 5.07 pg/mL
same,Concentration of PGE2 produced (pg/ml) Mean ± S.E.,Prostaglandin E2 (PGE2); test sample 2 μg/ml,384.44 ± 8.02 pg/mL
same,Concentration of PGE2 produced (pg/ml) Mean ± S.E.,Prostaglandin E2 (PGE2); test sample 4 μg/ml,395.81 ± 4.68 pg/mL
same,% activity PGE2 expression against LPS control,Prostaglandin E2 (PGE2); test sample 0.125 μg/ml,25.37↓ %
same,% activity PGE2 expression against LPS control,Prostaglandin E2 (PGE2); test sample 0.25 μg/ml,34.76↓ %
same,% activity PGE2 expression against LPS control,Prostaglandin E2 (PGE2); test sample 0.5 μg/ml,39.09↓ %
same,% activity PGE2 expression against LPS control,Prostaglandin E2 (PGE2); test sample 1 μg/ml,45.44↓ %
same,% activity PGE2 expression against LPS control,Prostaglandin E2 (PGE2); test sample 2 μg/ml,50.00%
same,% activity PGE2 expression against LPS control,Prostaglandin E2 (PGE2); [6],50.00↓ %
same,% activity PGE2 expression against LPS control,Prostaglandin E2 (PGE2); test sample 4 μg/ml,48.52↓ %
same,IC50,[2],143 µM
same,"LTB4 inhibition, % inhibition",LTB4,26%
same,"Anti-oxidant activity by DPPH Method, % inhibition",[3]; at 300 μg/ml,29% inhibition at 300
same,Anti-oxidant activity by DPPH Method,[3]; result in words,shows DPPH scavenging activity
same,Collagenase inhibition (IC50 μg/ml),[4],119 µg/mL
same,Concentration of IL-6 produced (pg/ml) Mean ± S.E.,Interleukin-6 (IL-6); test sample 0.125 μg/ml,130.38 ± 2.11 pg/mL
same,Concentration of IL-6 produced (pg/ml) Mean ± S.E.,Interleukin-6 (IL-6); test sample 0.25 μg/ml,123.92 ± 2.09 pg/mL
same,Concentration of IL-6 produced (pg/ml) Mean ± S.E.,Interleukin-6 (IL-6); test sample 0.5 μg/ml,117.23 ± 2.84 pg/mL
same,Concentration of IL-6 produced (pg/ml) Mean ± S.E.,Interleukin-6 (IL-6); test sample 1 μg/ml,106.81 ± 3.79 pg/mL
same,Concentration of IL-6 produced (pg/ml) Mean ± S.E.,Interleukin-6 (IL-6); test sample 2 μg/ml,104.75 ± 5.31 pg/mL
same,Concentration of IL-6 produced (pg/ml) Mean ± S.E.,Interleukin-6 (IL-6); test sample 4 μg/ml,101.11 ± 2.87 pg/mL
same,% activity IL-6 expression against LPS control,Interleukin-6 (IL-6); test sample 0.125 μg/ml,8.33↓ %
same,% activity IL-6 expression against LPS control,Interleukin-6 (IL-6); test sample 0.25 μg/ml,12.87↓ %
same,% activity IL-6 expression against LPS control,Interleukin-6 (IL-6); test sample 0.5 μg/ml,17.58↓ %
same,% activity IL-6 expression against LPS control,Interleukin-6 (IL-6); test sample 1 μg/ml,24.90↓ %
same,% activity IL-6 expression against LPS control,Interleukin-6 (IL-6); test sample 2 μg/ml,26.35↓ %
same,% activity IL-6 expression against LPS control,Interleukin-6 (IL-6); test sample 4 μg/ml,28.03%
same,% activity IL-6 expression against LPS control,"Interleukin-6 (IL-6); test sample 4 μg/ml, listed as OP",28.91↓ %
same,Concentration of NO produced (μmol/ml) Mean ± S.E.,Nitric Oxide (NO); test sample 0.125 μg/ml,42.77 ± 1.42 µmol/mL
same,Concentration of NO produced (μmol/ml) Mean ± S.E.,Nitric Oxide (NO); test sample 0.25 μg/ml,41.21 ± 1.05 µmol/mL
same,Concentration of NO produced (μmol/ml) Mean ± S.E.,Nitric Oxide (NO); test sample 0.5 μg/ml,39.25 ± 1.08 µmol/mL
same,Concentration of NO produced (μmol/ml) Mean ± S.E.,Nitric Oxide (NO); test sample 1 μg/ml,34.12 ± 2.00 µmol/mL
same,Concentration of NO produced (μmol/ml) Mean ± S.E.,Nitric Oxide (NO); test sample 2 μg/ml,30.21 ± 1.18 µmol/mL
same,% activity NO expression against LPS control,Nitric Oxide (NO); test sample 0.125 μg/ml,3.51↓ %
same,% activity NO expression against LPS control,Nitric Oxide (NO); test sample 0.25 μg/ml,7.03↓ %
same,% activity NO expression against LPS control,Nitric Oxide (NO); test sample 0.5 μg/ml,11.45↓ %
same,% activity NO expression against LPS control,Nitric Oxide (NO); test sample 1 μg/ml,23.03↓ %
same,% activity NO expression against LPS control,Nitric Oxide (NO); test sample 2 μg/ml,31.85%
same,% activity NO expression against LPS control,Nitric Oxide (NO); [6],31.85↓ %
same,% activity NO expression against LPS control,Nitric Oxide (NO); test sample 4 μg/ml,29.66↓ %
same,Concentration of IL-1β produced (pg/ml) Mean ± S.E.,[5]; test sample 0.125 μg/ml,130.79 ± 3.07 pg/mL
same,Concentration of IL-1β produced (pg/ml) Mean ± S.E.,[5]; test sample 0.25 μg/ml,119.44 ± 2.23 pg/mL
same,Concentration of IL-1β produced (pg/ml) Mean ± S.E.,[5]; test sample 0.5 μg/ml,109.72 ± 3.21 pg/mL
same,Concentration of IL-1β produced (pg/ml) Mean ± S.E.,[5]; test sample 1 μg/ml,96.61 ± 3.63 pg/mL
same,Concentration of IL-1β produced (pg/ml) Mean ± S.E.,[5]; test sample 2 μg/ml,102.08 ± 2.61 pg/mL
same,Concentration of IL-1β produced (pg/ml) Mean ± S.E.,[5]; test sample 4 μg/ml,100.45 ± 3.78 pg/mL
same,% activity IL-1β expression against LPS control,[5]; test sample 0.125 μg/ml,6.29↓ %
same,% activity IL-1β expression against LPS control,[5]; test sample 0.25 μg/ml,14.42↓ %
same,% activity IL-1β expression against LPS control,[5]; test sample 0.5 μg/ml,21.39↓ %
same,% activity IL-1β expression against LPS control,[5]; test sample 1 μg/ml,31.78%
same,% activity IL-1β expression against LPS control,"[5]; test sample 1 μg/ml, listed as OP",30.78↓ %
same,% activity IL-1β expression against LPS control,[5]; test sample 2 μg/ml,26.86↓ %
same,% activity IL-1β expression against LPS control,[5]; test sample 4 μg/ml,28.03↓ %
